In publication PMC12616682, “Identification of a Highly Cooperative PROTAC Degrader Targeting GTP-Loaded KRAS(On) Alleles” (Journal of the American Chemical Society, 2025):
Read-outs that look alike come from different tables or passages of the source.

Tests used:
[1] = biological target: T1, HiBiT-KRAS^G12R in Cal-62 cells (Homo sapiens, UniProt P01116, G12R); assay: Kinetic degradation (live mode), Cal-62 HiBiT KRAS^G12R cells; type: cell-based; conditions: Cal62-HiBit (G12R)
T1 construct: generated a HiBiT-KRAS^G12R Cal-62 knock-in cell line using the CRISPR Cas9 technology; endogenous in cells; host or cells: Cal-62 HiBiT KRAS G12R (in-house CRISPR knock-in)

KRAS^Q61L in SW948 cells = biological target: T2, KRAS^Q61L in SW948 cells (Homo sapiens, UniProt P01116, Q61L); assay: Endogenous KRAS degradation by Western blot in SW948 cells; type: cell-based
T2 construct: host or cells: SW948

[2] = biological target: T3, KRAS^G12R in Cal-62 cells (Homo sapiens, UniProt P01116, G12R); assay: Endogenous KRAS degradation by Western blot in Cal-62 cells; type: cell-based; conditions: Cal-62 (G12R)
T3 construct: Potent degradation of endogenous KRAS^G12R was achieved by ACBI4 in the Cal-62 cell line; host or cells: Cal-62

[3] = biological target: T4, KRAS^Q61K in Calu-6 cells (Homo sapiens, UniProt P01116, Q61K); assay: Endogenous KRAS degradation by Western blot in Calu-6 cells; type: cell-based; conditions: Calu-6 (Q61K)
T4 construct: host or cells: Calu-6

[4] = biological target: T5, HiBiT-KRAS^G12D in GP5d cells (Homo sapiens, UniProt P01116, G12D); assay: HiBiT degradation assay, HiBiT-KRAS^G12D GP5d cells; type: cell-based; conditions: Gp5D (HiBit-G12D)
T5 construct: host or cells: GP5d HiBiT KRAS G12D

KRAS^G12R in KP-2 cells = biological target: T6, KRAS^G12R in KP-2 cells (Homo sapiens, UniProt P01116, G12R); assay: Endogenous KRAS degradation by Western blot in KP-2 cells; type: cell-based; conditions: KP-2 (G12R)
T6 construct: host or cells: KP-2

KRAS^WT-GDP = KRAS^WT-GDP (Homo sapiens, UniProt P01116); assay: Binary SPR KRAS^WT-GDP (protocol from Lito et al.); conditions: read-out: KRAS^WT-GDP KD
[5] = biological target: T1, HiBiT-KRAS^G12R in Cal-62 cells; assay: HiBiT degradation assay, HiBiT-KRAS^G12R Cal-62 cells; type: cell-based; conditions: Cal-62 (HiBitG12R)
Description: (Gibco) with 10% FBS in a humidiﬁed cell incubator at 37 °C and 5% CO2.
Plasmids pSpCas9 BB-2A-GFP (PX458) containing gRNA, Cas9 and GFP sequences and […] plasmid containing ssDNA donor template were purchased from Genscript. Cal-62 cells were plated at 5x10^5 cells in a 6-well plate and left to adhere overnight. The next day, the transfection plasmids (0.5 µg of each gRNA plasmid and 0.5 µg of donor template) were diluted in Opti-MEM, combined with Lipofectamine solution in Opti-mem according to the manufacturer’s protocol and incubated for 20 min at RT. The mixture was added to the cells and incubated for 24 h. The next day the media was exchanged, and the cells were left to incubate for another 24 h. GFP positive cells were single-cell sorted into 96-well plates using ﬂuorescence-activated cell sorting (FACS) at the Flow Cytometry and Cell Sorting Facility (University of Dundee). Sorted cells were left to grow in conditioned media supplemented with 20% FBS for 3 weeks. Formed colonies were tested for the expression of HiBiT KRAS using the Nano-Glo® HiBiT Lytic system (Promega). The positive clones were additionally tested for insertion of the HiBiT tag by western blotting for KRAS (mouse anti-KRAS, LsBio) and HiBiT (mouse anti-HiBiT, Promega) and the insert was further conﬁrmed by Sanger sequencing. […]
gRNA1: 5’ […] 3’, gRNA2: 5’ […] 3’, gRNA 3: 5’ […]
template DNA: 5’ caatccagctt tatttgacac tcattctctc aactctcatc tgattcttac tgttaatatt tatccaagag aactactgcc atgatgcttt aaaagttttt ctgtagctgt tgcatattga cttctaacac ttagaggtgg gggtccacta ggaaaactgt aacaataaga gtggagatag ctgtcagcaa cttttgtgag ggtgtgctac agggtgtaga gcactgtgaa gtctctacat gagtgaagtc atgatatgat cctttgagag cctttagccg ccgcagaaca gcagtctggc tatttagata gaacaacttg attttaagat aaaagaactg tctatgtagc atttatgcat ttttcttaag cgtcgatgga ggagtttgta aatgaagtac agttcattac gatacacgtc tgcagtcaac tggaattttc atgattgaat tttgtaaggt attttgaaat aatttttcat ataaaggtga gtttgtatta aaaggtactg gtggagtatt tgatagtgta ttaaccttat gtgtgacatg ttctaatata gtcacatttt cattattttt attataaggc ctgctgaaa […]
atg[…]act gaGtaCaaGctCgtAgtagttggag ctCgtggc gta ggc aag agt gcc ttA acAatCcaActaattcagaatcat tttgtggacg aatatgatcc aacaatagag gtaaatcttg ttttaatatg catattactg gtgcaggacc attctttgat acagataaag gtttctctga ccattttcat gagtacttat tacaagataa ttatgctgaa agttaagtta tctgaaatgt accttgggtt tcaagttata tgtaaccatt aatatgggaa ctttactttc cttgggagta tgtcagggtc catgatgttc actctctgtg cattttgatt ggaagtgtat ttcagagttt cgtgagaggg tagaaatttg tatcctatct ggacctaaaa gacaatcttt ttattgtaac ttttattttt atgggtttct tggtattgtg acatcatatg taaaggttag atttaattgt actagtgaaa tataattgtt tgatggttga tttttttaaa cttcatcagc agtattttcc tatcttcttc tcaacattag agaacctaca actaccggat aaattttaca aaatgaatta tttgcctaag gtgtggttta tataaaggta ctattaccaa ctttaccttt gctttgttgt catttttaaa tttactcaag gaaatactag gatttaaaaa aaaattcctt 3’
Degradation via Detection of Split Nanoluciferase (HiBiT)
To assess PROTAC-mediated degradation of HiBiT-tagged KRAS constructs, cells were seeded at […]
further incubated at 37 °C for 4 and 24 h. Following incubation, 20 µL per well of Promega Nano-Glo® HiBiT lytic detection reagent mix (Promega Nano-Glo® HiBiT Lytic Detection System […]
plotted as percent of DMSO control.

Cal-62 cells = assay: CellTiter-Glo anti-proliferation, Cal-62; type: cell-based, human; conditions: Cal-62 (G12R)
KRAS^G12D in GP5d cells = biological target: T7, KRAS^G12D in GP5d cells (Homo sapiens, UniProt P01116, G12D); assay: Endogenous KRAS degradation by Western blot in GP5d cells; type: cell-based
T7 construct: comparison of the degradative effect on endogenous KRAS; host or cells: GP5d

Calu-6 cells = assay: CellTiter-Glo anti-proliferation, Calu-6; type: cell-based, human; conditions: Homo sapiens, 72 h; Calu-6 (Q61K); read-out: CTG 72h Ic50

1/K (Tau) [1]: unstable
Plateau (degradation rate) [1]: unstable
Plateu/ Tau [1]: unstable
DMax 4h (KRAS^Q61L in SW948 cells; 4 h): unstable
Dc50 4h (KRAS^Q61L in SW948 cells; 4 h): unstable
Dmax (KRAS^Q61L in SW948 cells; 18 h, read-out: DMax 18h): 45%
DC50 (KRAS^Q61L in SW948 cells; 18 h, read-out: Dc50 18h): 10000 nM
DMax 4h ([2]; 4 h): unstable
Dc50 4h ([2]; 4 h): unstable
Dmax ([2]; 18 h, read-out: DMax 18h): 9%
DC50 ([2]; 18 h, read-out: Dc50 18h): 282 nM
Dc50 4h ([3]; 4 h): unstable
Dmax ([3]; 4 h, read-out: DMax 4h): 11%
DMax 18h ([3]; 18 h): unstable
Dc50 18h ([3]; 18 h): unstable
Dmax ([4]; 4 h, read-out: DMax 4h): 79%
DC50 ([4]; 4 h, read-out: Dc50 4h): 9.9 nM
Dmax ([4]; 24 h, read-out: DMax 24h): 94%
DC50 ([4]; 24 h, read-out: Dc50 24h): 2.5 nM
DMax 4h (KRAS^G12R in KP-2 cells; 4 h): unstable
Dc50 4h (KRAS^G12R in KP-2 cells; 4 h): unstable
Dmax (KRAS^G12R in KP-2 cells; 18 h, read-out: DMax 18h): 50%
DC50 (KRAS^G12R in KP-2 cells; 18 h, read-out: Dc50 18h): 961 nM
Kd (KRAS^WT-GDP): 4.9 ± 2.6 nM
DMax 4h ([5]; 4 h): unstable
Dc50 4h ([5]; 4 h): unstable
Dmax ([5]; 24 h, read-out: DMax 24h): 31%
DC50 ([5]; 24 h, read-out: Dc50 24h): 114 nM
Dmax (KRAS^G12D in GP5d cells; 4 h, read-out: DMax 4h): 98.3%
DC50 (KRAS^G12D in GP5d cells; 4 h, read-out: Dc50 4h): 7.3 nM
Dmax (KRAS^G12D in GP5d cells; 18 h, read-out: DMax 18h): 100%
IC50 (Calu-6 cells): 338 nM
Structure (SMILES): Cc1ncsc1-c1ccc([C@H](CO)NC(=O)[C@@H]2C[C@@H](O)CN2C(=O)[C@H](C(C)C)n2cc(OCCCCN3CCCN(c4nccc(-c5noc([C@@]6(C)CCCc7sc(N)c(C#N)c76)n5)n4)[C@@H](C)C3)nn2)cc1 [ACBI3, reference compound]
CTG 72h Ic50 (Cal-62 cells): unstable
